For assay [1], the target named is Protein arginine N-methyltransferase 3 (Homo sapiens, UniProt O60678). The experiment in a line: Inhibition of human PRMT3 using H4-21peptide as substrate at 10 uM incubated for 10 mins by fluorescence based analysis relative to control.
The target in assay [2] is Protein arginine N-methyltransferase 8 (Homo sapiens, UniProt Q9NR22). Kind of assay: Inhibition of human PRMT8 using Histone H4 as substrate and SAM as cofactor at 10 uM by radiometric HotSpot assay relative to control.
Protein arginine N-methyltransferase 8, sequence (Q9NR22 2-394 limits assumed): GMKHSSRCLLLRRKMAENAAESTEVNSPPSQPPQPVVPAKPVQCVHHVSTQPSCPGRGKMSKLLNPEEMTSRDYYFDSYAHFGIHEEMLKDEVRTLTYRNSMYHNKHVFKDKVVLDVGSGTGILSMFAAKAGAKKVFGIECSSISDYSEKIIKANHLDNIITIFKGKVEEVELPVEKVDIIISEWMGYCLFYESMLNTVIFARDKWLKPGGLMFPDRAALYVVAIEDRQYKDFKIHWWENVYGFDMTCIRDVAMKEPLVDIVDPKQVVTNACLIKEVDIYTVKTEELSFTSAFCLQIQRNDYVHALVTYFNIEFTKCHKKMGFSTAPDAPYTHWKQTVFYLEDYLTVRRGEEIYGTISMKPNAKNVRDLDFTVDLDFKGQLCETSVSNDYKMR
Assay [3] addresses Protein arginine N-methyltransferase 1 (Homo sapiens, UniProt Q99873). The experiment in a line: Inhibition of human PRMT1 using H4-21peptide as substrate at 10 uM incubated for 10 mins by fluorescence based analysis relative to control.
Assay [4] concerns the target T1, Histone-arginine methyltransferase CARM1 (Homo sapiens) (UniProt Q86X55).
T1 sequence (whole entry): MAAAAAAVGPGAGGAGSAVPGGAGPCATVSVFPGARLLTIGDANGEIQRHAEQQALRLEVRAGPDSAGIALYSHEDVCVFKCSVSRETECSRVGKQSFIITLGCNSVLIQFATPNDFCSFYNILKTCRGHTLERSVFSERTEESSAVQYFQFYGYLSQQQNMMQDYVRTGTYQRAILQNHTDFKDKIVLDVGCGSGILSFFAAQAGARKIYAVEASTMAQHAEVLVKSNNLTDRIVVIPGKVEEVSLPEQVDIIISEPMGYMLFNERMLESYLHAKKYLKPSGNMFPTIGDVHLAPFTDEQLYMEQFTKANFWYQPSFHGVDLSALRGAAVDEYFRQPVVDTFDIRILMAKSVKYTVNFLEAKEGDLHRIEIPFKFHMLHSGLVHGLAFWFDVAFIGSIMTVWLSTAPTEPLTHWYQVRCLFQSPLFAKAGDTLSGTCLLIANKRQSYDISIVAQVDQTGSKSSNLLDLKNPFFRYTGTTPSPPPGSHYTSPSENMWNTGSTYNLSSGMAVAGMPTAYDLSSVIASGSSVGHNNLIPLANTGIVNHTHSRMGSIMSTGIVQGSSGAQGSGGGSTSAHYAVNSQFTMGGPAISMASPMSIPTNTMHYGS
The experiment in a line: Inhibition of human PRMT4 using histone H3 as substrate and SAM as cofactor at 10 uM by radiometric HotSpot assay relative to control.

The target in assay [5] is Protein arginine N-methyltransferase 6 (Homo sapiens, UniProt Q96LA8). Kind of assay: Inhibition of human PRMT6 using GST-GAR as substrate and SAM as cofactor at 10 uM by radiometric HotSpot assay relative to control.
Protein arginine N-methyltransferase 6, sequence (Q96LA8 whole entry, looked up): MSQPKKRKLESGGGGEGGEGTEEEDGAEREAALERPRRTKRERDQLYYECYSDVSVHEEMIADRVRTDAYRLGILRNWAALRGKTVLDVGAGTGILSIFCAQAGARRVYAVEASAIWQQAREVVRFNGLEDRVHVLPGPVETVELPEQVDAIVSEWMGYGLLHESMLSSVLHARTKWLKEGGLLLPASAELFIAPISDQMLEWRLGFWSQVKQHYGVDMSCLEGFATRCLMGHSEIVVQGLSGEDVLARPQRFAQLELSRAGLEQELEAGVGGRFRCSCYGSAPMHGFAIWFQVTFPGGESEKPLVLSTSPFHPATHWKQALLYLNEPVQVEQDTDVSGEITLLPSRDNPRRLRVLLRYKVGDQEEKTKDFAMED

Calls of active or inactive are those of the source. No cut-off for these calls is given here. Bounds are passed on as bounds.

Protein arginine N-methyltransferase 3, sequence (O60678 2-531 limits assumed): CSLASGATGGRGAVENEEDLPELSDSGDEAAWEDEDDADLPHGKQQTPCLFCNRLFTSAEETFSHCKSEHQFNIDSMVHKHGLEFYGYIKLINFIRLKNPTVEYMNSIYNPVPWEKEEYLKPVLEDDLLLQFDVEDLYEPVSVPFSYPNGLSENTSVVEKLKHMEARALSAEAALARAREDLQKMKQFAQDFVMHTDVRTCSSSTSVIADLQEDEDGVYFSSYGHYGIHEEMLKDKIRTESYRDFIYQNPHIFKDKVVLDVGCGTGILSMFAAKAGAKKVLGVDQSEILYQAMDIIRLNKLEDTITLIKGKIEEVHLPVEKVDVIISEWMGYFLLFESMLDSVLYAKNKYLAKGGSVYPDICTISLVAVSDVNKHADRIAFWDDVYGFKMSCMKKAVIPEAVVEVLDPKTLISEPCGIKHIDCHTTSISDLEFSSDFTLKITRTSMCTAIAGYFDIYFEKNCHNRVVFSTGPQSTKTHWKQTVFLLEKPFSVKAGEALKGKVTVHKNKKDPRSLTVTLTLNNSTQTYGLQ
Protein arginine N-methyltransferase 1, sequence (Q99873 whole entry, looked up): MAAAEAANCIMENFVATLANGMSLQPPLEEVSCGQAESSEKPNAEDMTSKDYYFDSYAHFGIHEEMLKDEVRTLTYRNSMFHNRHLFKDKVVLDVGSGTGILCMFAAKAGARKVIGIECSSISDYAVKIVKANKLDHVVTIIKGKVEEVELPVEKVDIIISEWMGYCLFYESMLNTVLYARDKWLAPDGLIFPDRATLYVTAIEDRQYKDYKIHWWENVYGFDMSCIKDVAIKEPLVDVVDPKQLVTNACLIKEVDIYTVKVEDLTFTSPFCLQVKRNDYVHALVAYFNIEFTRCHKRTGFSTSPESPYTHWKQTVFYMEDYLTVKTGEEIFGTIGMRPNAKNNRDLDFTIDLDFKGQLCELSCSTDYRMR

For orientation: inhibition means the drop in the measured response relative to a control, in per cent. As for `COc1cc2nc(-c3ccoc3)nc(NCCSC[C@H]3O[C@@H](n4cnc5c(N)ncnc54)[C@H](O)[C@@H]3O)c2cc1OC`, the values for the inhibition in assay [1] and in assay [2] were less than 30% and less than 50%, respectively. In addition, the inhibition entry in assay [3] is “inactive”.

Take `Nc1ncnc2c1ncn2[C@@H]1O[C@H](CSCCNC(=O)Nc2ccccc2)[C@@H](O)[C@H]1O`: the inhibition in assay [1] was more than 50%; in assay [4], 27%; in assay [2], less than 30%; in assay [3], less than 50%.

With `COc1cc2nc(-c3ccc(C(F)(F)F)cc3)nc(NCCSC[C@H]3O[C@@H](n4cnc5c(N)ncnc54)[C@H](O)[C@@H]3O)c2cc1OC`, the inhibition in assay [1] is less than 30%; in assay [2], less than 50%. For the same molecule, in assay [3], the inhibition result is “inactive”.

In the case of `CCNC(=O)NCCSC[C@H]1O[C@@H](n2cnc3c(N)ncnc32)[C@H](O)[C@@H]1O`, the inhibition is 3% in assay [1], 27% in assay [4], less than 30% in assay [2] and less than 50% in assay [3].

For the molecule `Nc1ncnc2c1ncn2[C@@H]1O[C@H](CSCCNC(=O)NCc2ccc(-c3ccccc3O)cc2)[C@@H](O)[C@H]1O`, the inhibition in assay [1] is 3%; in assay [4] it was 27%; in assay [2], less than 30%; in assay [3], less than 50%.

For the molecule `N=C(NCCSC[C@H]1O[C@@H](n2cnc3c(N)ncnc32)[C@H](O)[C@@H]1O)Nc1cccc(I)c1`, the inhibition in assay [5] was more than 90%; in assay [4], more than 90%; in assay [2] it was more than 95%; in assay [3] it was more than 50%.

`Nc1ncnc2c1ncn2[C@@H]1O[C@H](CSCCCNC(=O)NCCCc2ccccc2)[C@@H](O)[C@H]1O`: the inhibition in assay [1] was 3%; in assay [4], 27%; in assay [2], less than 30%; in assay [3] it was less than 50%.

On to `N=C(NCCCSC[C@H]1O[C@@H](n2cnc3c(N)ncnc32)[C@H](O)[C@@H]1O)Nc1cccc(-c2cccnc2)c1`, for which the inhibition was more than 90% in assay [5], more than 90% in assay [4], more than 95% in assay [2] and more than 50% in assay [3].

As for `Nc1ncnc2c1ncn2[C@@H]1O[C@H](CSCCNC(=O)Nc2ccc(F)cc2)[C@@H](O)[C@H]1O`, the inhibition in assay [1] is more than 50%; in assay [4], 27%; in assay [2], less than 30%; in assay [3], less than 50%.

With `N=C(NCCCSC[C@H]1O[C@@H](n2cnc3c(N)ncnc32)[C@H](O)[C@@H]1O)Nc1cccc(-c2cccc([N+](=O)[O-])c2)c1`, the inhibition in assay [5] was more than 90%; in assay [4], more than 90%; in assay [2], more than 95%; in assay [3], more than 50%.

`Nc1ncnc2c1ncn2[C@@H]1O[C@H](CSCCNC(=O)NCc2ccccc2Br)[C@@H](O)[C@H]1O`: the inhibition is 3% in assay [1], more than 90% in assay [4], less than 30% in assay [2] and less than 50% in assay [3].

For `Nc1ncnc2c1ncn2[C@@H]1O[C@H](CSCCCNC(=O)NCc2ccc(F)cc2)[C@@H](O)[C@H]1O`, the inhibition in assay [1] is 3%; in assay [4], 27%; in assay [2], less than 30%; in assay [3] it was less than 50%.

Take `N=C(NCCCSC[C@H]1O[C@@H](n2cnc3c(N)ncnc32)[C@H](O)[C@@H]1O)Nc1cccc(-c2ccc(F)nc2)c1`: the inhibition in assay [5] is more than 90%; in assay [4] it was more than 90%; in assay [2], more than 95%; in assay [3] it was more than 50%.

Take `N=C(NCCSC[C@H]1O[C@@H](n2cnc3c(N)ncnc32)[C@H](O)[C@@H]1O)Nc1cccc(-c2ccc(Cl)cc2)c1`: the inhibition is more than 90% in assay [5], more than 90% in assay [4], more than 95% in assay [2] and more than 50% in assay [3].

As to `COc1cc2nc(-c3ccc(N)cc3)nc(NCCSC[C@H]3O[C@@H](n4cnc5c(N)ncnc54)[C@H](O)[C@@H]3O)c2cc1OC`, the inhibition in assay [1] is less than 30%; in assay [2] it was less than 50%. For the same molecule, the inhibition entry in assay [3] was “inactive”.

Regarding `COc1cc2nc(-c3cccc(F)c3)nc(NCCSC[C@H]3O[C@@H](n4cnc5c(N)ncnc54)[C@H](O)[C@@H]3O)c2cc1OC`, the inhibition in assay [1] is less than 30%; in assay [2] it was less than 50%. The inhibition entry in assay [3] was “inactive”.

Take `Nc1ncnc2c1ncn2[C@@H]1O[C@H](CSCCNC(=O)NCc2ccc(-c3cc[nH]n3)cc2)[C@@H](O)[C@H]1O`: the inhibition in assay [1] is 3%; in assay [4] it was 27%; in assay [2] it was less than 30%; in assay [3], less than 50%.

On to `Nc1ncnc2c1ncn2[C@@H]1O[C@H](CSCCNC(=O)Nc2cccc3ccccc23)[C@@H](O)[C@H]1O`, for which the inhibition in assay [1] was 3%; in assay [4] it was 27%; in assay [2], less than 30%; in assay [3] it was less than 50%.

Regarding `COc1cc2nc(-c3cccc([N+](=O)[O-])c3)nc(NCCSC[C@H]3O[C@@H](n4cnc5c(N)ncnc54)[C@H](O)[C@@H]3O)c2cc1OC`, the inhibition in assay [1] is less than 30%; in assay [2] it was less than 50%. Moreover, in assay [3], the inhibition entry is “inactive”.

Take `Nc1ncnc2c1ncn2[C@@H]1O[C@H](CSCCNC(=O)NCc2ccc(F)cc2)[C@@H](O)[C@H]1O`: the inhibition in assay [1] was more than 50%; in assay [4], more than 90%; in assay [2] it was less than 30%; in assay [3], less than 50%.

Take `COc1cc2nc(-c3ccc(F)c(O)c3)nc(NCCSC[C@H]3O[C@@H](n4cnc5c(N)ncnc54)[C@H](O)[C@@H]3O)c2cc1OC`: the figures for the inhibition in assay [1] and in assay [2] were less than 30% and less than 50%, respectively. Moreover, the inhibition result in assay [3] was “inactive”.

Turning to `Nc1ncnc2c1ncn2[C@@H]1O[C@H](CSCCNC(=O)Nc2ccc(Cl)cc2)[C@@H](O)[C@H]1O`, the inhibition in assay [1] is 3%; in assay [4], 27%; in assay [2] it was less than 30%; in assay [3], less than 50%.

For the molecule `Nc1ncnc2c1ncn2[C@@H]1O[C@H](CSCCCNC(=O)NCc2ccccc2)[C@@H](O)[C@H]1O`, the inhibition in assay [1] was 3%; in assay [4], 27%; in assay [2], less than 30%; in assay [3], less than 50%.

As for `Nc1ncnc2c1ncn2[C@@H]1O[C@H](CSCCNC(=O)Nc2ccccc2Br)[C@@H](O)[C@H]1O`, the inhibition was more than 50% in assay [1], 27% in assay [4], less than 30% in assay [2] and less than 50% in assay [3].

`COc1cc2nc(-c3cccc(O)c3)nc(NCCSC[C@H]3O[C@@H](n4cnc5c(N)ncnc54)[C@H](O)[C@@H]3O)c2cc1OC`: the inhibition in assay [1] is less than 30%; in assay [2], less than 50%. The inhibition result in assay [3] is “inactive”.

For the molecule `Nc1ncnc2c1ncn2[C@@H]1O[C@H](CSCCNC(=O)NCCc2ccccc2)[C@@H](O)[C@H]1O`, the inhibition in assay [1] is 3%; in assay [4], 27%; in assay [2] it was less than 30%; in assay [3], less than 50%.

Turning to `Nc1ncnc2c1ncn2[C@@H]1O[C@H](CSCCNC(=O)NCc2ccc3cnccc3c2)[C@@H](O)[C@H]1O`, the inhibition was 3% in assay [1], 27% in assay [4], less than 30% in assay [2] and less than 50% in assay [3].

With `Nc1ncnc2c1ncn2[C@@H]1O[C@H](CSCCNC(=O)NC2CCCCC2)[C@@H](O)[C@H]1O`, the inhibition in assay [1] was 3%; in assay [4] it was 27%; in assay [2], less than 30%; in assay [3], less than 50%.

`Nc1ncnc2c1ncn2[C@@H]1O[C@H](CSCCCNC(=O)NCCc2ccccc2)[C@@H](O)[C@H]1O`: the inhibition in assay [1] is 3%; in assay [4], 27%; in assay [2], less than 30%; in assay [3] it was less than 50%.

Turning to `COc1cc2nc(-c3ccccc3O)nc(NCCSC[C@H]3O[C@@H](n4cnc5c(N)ncnc54)[C@H](O)[C@@H]3O)c2cc1OC`, the inhibition is less than 30% in assay [1] and less than 50% in assay [2]. For the same molecule, the inhibition result in assay [3] was “inactive”.

Take `Nc1ncnc2c1ncn2[C@@H]1O[C@H](CSCCNC(=O)NCc2ccc(-c3cn[nH]c3)cc2)[C@@H](O)[C@H]1O`: the inhibition in assay [1] is 3%; in assay [4], 27%; in assay [2], less than 30%; in assay [3], less than 50%.

Turning to `Nc1ncnc2c1ncn2[C@@H]1O[C@H](CSCCNC(=O)NCCCc2ccccc2)[C@@H](O)[C@H]1O`, the inhibition is 3% in assay [1], 27% in assay [4], less than 30% in assay [2] and less than 50% in assay [3].
